Reference: patent publication US20110144155A1, “8-HYDROXYQUINOLINE DERIVATIVES FOR THE TREATMENT OF HEMATOLOGICAL MALIGNANCIES” (priority 2008, published 2011)

Tests used:
LP-1 myeloma cells = assay: Cell viability MTS assay, LP1; format: cell-based; settings: 72 hours
Procedure: (§1) LP-1 myeloma cells, MDAY-D2 murine leukemia/lymphoma cells, and OCI-AML2 human leukemia cells and A549 lung cancer cells were treated with increasing concentrations of compounds 5AHQ, HNQ, BCQ, COQ, and DiiodoQ (Table 1). 72 hours after incubation, cell viability was determined by an MTS assay. […] . Given the effects on cultured cells, 5AHQ was evaluated in a mouse model of leukemia. K562 cells were injected subcutaneously into NOD SCID mice. […] .

[1] = test system: OCI-AML2 human leukemia cells; assay: Cell viability MTS assay, AML2; format: cell-based; settings: 72 hours
Procedure: as §1

[2] = test system: MDAY-D2 murine leukemia/lymphoma cells; assay: Cell viability MTS assay, MDAY-D2; format: cell-based; settings: 72 hours
Procedure: as §1

A549 lung cancer cells = assay: Cell viability MTS assay, A549; format: cell-based; settings: 72 hours
Procedure: as §1

[3] = Copper binding: stability constant and Cu:ligand ratio; format: physicochemical
[4] = test system: K562 human leukemia cells; assay: K562 leukemia xenograft in NOD/SCID mice; format: in vivo
Procedure: Sublethally irradiated (3.54 Gy) NOD/SCID mice were injected subcutaneously with K562 human leukemia cells. One week later, mice were then treated daily by oral gavage with 5AHQ (50 mg/kg) in water. Three weeks after injection of cells, mice were sacrificed, the subcutaneous tumor excised, and the weight and volume of the tumor measured.
(§2) Given the effects on leukemia and lymphoma cell lines and primary patient samples, the compounds were tested in a leukemia/lymphoma xenograft model. MDAY-D2 leukemia/lymphoma cells were injected intraperitoneally into DBA2 mice. Mice were then treated twice daily with oral clioquinol (100 mg/kg) for 10 days. Ten days after treatment, mice were sacrificed and the weight and volume of the intraperitoneal tumor was measured. […] Similar results were obtained with a K562 leukemia, MDAY-D2 leukemia/lymphoma and OCI AML2 human leukemia xenograft (FIG. 4) K562 leukemia, MDAY-D2 leukemia/lymphoma or OCI AML2 human leukemia cells were injected subcutaneous into sublethally irradiated NOD-Scid mice. Animals were subsequently treated with 5AHQ. The 5AHQ treatment was initiated when tumors reached volumes of 200 mm^3 at which time mice were randomized to receive 100 mg/kg of 5AHQ (treated group) or buffer control (untreated group) for 5 of 7 days. Caliper measurements were performed twice weekly to estimate tumor volume and differences compared between treated and untreated groups.
LP-1 myeloma cells, MDAY-D2 murine leukemia/lymphoma cells, and OCI-AML2 human leukemia cells and A549 lung cancer cells were treated with increasing concentrations of compounds 5AHQ, HNQ, BCQ, COQ, and DiiodoQ (Table 1). 72 hours after incubation, cell viability was determined by an MTS assay. […]. Given the effects on cultured cells, 5AHQ was evaluated in a mouse model of leukemia. K562 cells were injected subcutaneously into NOD SCID mice. […].

[5] = test system: MDAY-D2 leukemia/lymphoma; assay: MDAY-D2 subcutaneous tumor in NOD-Scid mice; format: in vivo; settings: 100 mg/kg for 5 of 7 days
Procedure: as §2

[6] = test system: OCI AML2 human leukemia cells; assay: OCI AML2 xenograft in NOD-Scid mice; format: in vivo; settings: OCI AML2 subcutaneous; 100 mg/kg for 5 of 7 days
Procedure: as §2

myeloma cell lines = assay: Cell viability panel, myeloma cell lines; settings: read-out: IC50, induced cell death
Procedure: (§3) Cells were cultured at 37° C. with 5% CO2 in a humid incubator.
(§4) Cell viability was assessed with the CellTiter96® Aqueous Non-Radioactive Assay kit according to manufactures' instructions (Promega).
(§5) The effects of clioquinol on the viability of acute leukemia/lymphoma (n=7), myeloma (n=14), and solid tumor (n=5) cell lines as well as primary AML samples (n=6) and primary normal hematopoietic cells (n=3) was tested.

solid tumor cell lines = assay: Cell viability panel, solid tumor cell lines
Procedure: as §3, §4, §5

[7] = test system: acute leukemia/lymphoma cell lines; assay: Cell viability panel, acute leukemia/lymphoma cell lines; settings: read-out: IC50, induced cell death
Procedure: as §3, §4, §5

20S proteasome = biological target: T1, 20S proteasome (Homo sapiens, UniProt P28074); assay: Proteasome activity (chymotrypsin-like, Suc-LLVY-AMC); format: biochemical
T1 construct: Cellular proteins were extracted from cells with lysis buffer; endogenous in cells
T1 sequence (P28074 60-263): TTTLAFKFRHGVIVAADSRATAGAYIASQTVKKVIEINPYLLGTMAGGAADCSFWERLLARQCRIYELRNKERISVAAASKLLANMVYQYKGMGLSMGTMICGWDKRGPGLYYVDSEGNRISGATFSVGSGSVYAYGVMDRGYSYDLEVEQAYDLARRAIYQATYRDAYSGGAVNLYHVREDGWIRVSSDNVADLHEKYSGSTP
Procedure: Cellular proteins were extracted from cells with lysis buffer (50 mM HEPES pH 7.5, 150 mM NaCl, 2 mM ATP, and 1% Triton X-100). The chymotrypsin-like activity of the proteasome was measured by incubating equal amounts of protein with the preferential chymotrypsin-like substrate Suc-LLVY-AMC in assay buffer (50 mM Tris-HCl, pH 7.5, 150 mM NaCl) for two hours. After incubation, […] and the rate of free AMC was measured over time with a florescent spectrophotometric plate reader (excitation=380 nm, emission=460 nm).

[8] = test system: primary AML patient samples; assay: Cell viability, primary AML samples; format: cell-based; settings: Homo sapiens; in 6/7 primary AML patient samples; forty-eight hours; read-out: IC50, induced cell death
[9] = test system: primary normal hematopoietic cells; assay: Cell viability, primary normal hematopoietic cells; format: cell-based; settings: forty-eight hours
cyclin D2 promoter = assay: High throughput screen for inhibitors of cyclin D2 transactivation (luciferase); format: cell-based, Mouse; settings: NIH3T3 cells with c-maf; ~5 μM; sixteen hours
Source text: The promoter of cyclin D2 (−894 to −4), containing c-maf responsive element sequence (MARE), was cloned from HeLa cell genomic DNA and subcloned into the pGL2 luciferase reporter vector (Promega, Madison, Wis.). This construct was co-transfected with pcDNA3.1 containing a neomycin resistance gene into NIH3T3 wild type cells and NIH3T3 cells stably over-expressing c-maf-IRES-GFP. Cells stably expressing c-maf, GFP, and luciferase were selected for further application.
NIH3T3 cells stably expressing c-maf and the cyclin D2 promoter driving luciferase (13,000 cells per well) were plated in 96-well plates by the Biomek FX liquid handler (Beckman, Fullerton, Calif.). The same workstation was used for plate formatting and reagent distribution. […] After incubation, cyclin D2 transactivation was assessed by the luciferase assay and viability was assessed by the MTS assay.
Luciferase activity was assessed according to the manufacturer's instructions (Promega, Madison, Wis.). […] After 10 min incubation, an equal volume of Bright-Glo Luciferase substrate (Promega) was added and the luminescence signal was detected with a 96-well Luminoskan luminescence plate reader (Thermo Labsystem, Waltham, Mass.) with a 5 second integration. […]

p21 and p27 = p21 and p27 expression in myeloma and leukemia cells; format: cell-based; settings: low micromolar concentrations
Procedure: To prepare cytosolic extracts, NIH3T3 cells and myeloma cells were washed with phosphate-buffered saline (PBS, pH 7.4) and suspending in lysis buffer [10 mM Tris (pH 7.4), 150 mM NaCl, 0.1% Triton X-100, 0.5% sodium deoxycholate, and 5 mM EDTA] containing protease inhibitors (Complete tablets, Roche, Indianapolis, Ind.). Protein concentrations were determined by the Bradford assay. Immunoblot assays were performed by subjecting equal amounts of protein to SDS-PAGE gels followed by transfer to Nitrocellulose membranes. Membranes were probed with polyclonal rabbit anti-human cyclin D2 (0.5 μg/ml, both from Santa Cruz Biotech, Santa Cruz, Calif.), or monoclonal mouse-anti human p21 (1:200 v/v, Santa Cruz Biotech), monoclonal mouse-anti human p27 (1:2,500 v/v BD Transduction Laboratories), polyclonal mouse-anti human ubiquitin (1:2,000 v/v Calbiochem) and monoclonal mouse-anti-β-actin (1:10,000 v/v) (Sigma, St. Lois, Mo.). […] Detection was performed by the Enhanced Chemical Luminescence (ECL) method (Pierce, Rockford, Ill.).
Cyclin D2 is over-expressed in multiple myeloma (MM) and a subset of high-risk patients with acute myeloid leukemia (AML), contributing to their pathogenesis and chemoresistance (17, 18) (19). […] Sixteen hours after the addition of the compounds, luciferase expression was measured as a marker of cyclin D2 transactivation. […]

[10] = test system: myeloma and leukemia cells; assay: Cell cycle analysis; format: cell-based; settings: low micromolar concentrations
Procedure: Cells were harvested, washed with cold PBS, suspended in 70% cold ethanol and incubated overnight at −20° C. Cells were then treated with 100 ng/ml of DNase-free RNase (InvitroGen) at 37° C. for 30 min, washed with cold PBS, and resuspended in PBS with 50 μg/ml of propidium iodine. DNA content was analyzed by flow cytometry (FACSCalibur, Becton Dickinson, Florida, USA). The percentage of cells in each phase of the cell cycle was calculated with ModiFit software (Becton Dickinson).
Cyclin D2 is over-expressed in multiple myeloma (MM) and a subset of high-risk patients with acute myeloid leukemia (AML), contributing to their pathogenesis and chemoresistance (17, 18) (19). One of the regulators of cyclin D2 is the oncogene c-maf that is also frequently over-expressed in MM (27). Therefore, it was sought to identify c-maf dependent and independent inhibitors of cyclin D2. To identify such small molecule inhibitors, a high throughput chemical genomics screen was developed. […] Sixteen hours after the addition of the compounds, luciferase expression was measured as a marker of cyclin D2 transactivation. […]

[11] = test system: MDAY-D2 leukemia/lymphoma cells; format: in vivo, mice; settings: oral 100 mg/kg twice daily, 10 days
Procedure: DBA-2 mice were injected intraperitoneally with MDAY-D2 murine leukemia cells. Mice were then treated twice daily by oral gavage with clioquinol (100 mg/kg) dissolved in intralipid or intralipid control. Ten days after treatment, mice were sacrificed, the intraperitoneal tumor excised, and the weight and volume of the tumor measured.
as §2, with “Caliper measurements were performed twice weekly to estimate tumor volume and differences compared between treated and untreated groups.” left out

[12] = after oral administration, patients; cited from earlier work
proteasome = biological target: T2, proteasome (Homo sapiens, UniProt P28074); assay: Proteasome inhibition in cells; settings: resistant cells (for clioquinol including normal hematopoietic cells)
T2 sequence (P28074 60-263): T1 sequence (P28074 60-263)
Procedure: Cellular proteins were extracted from cells with lysis buffer (50 mM HEPES pH 7.5, 150 mM NaCl, 2 mM ATP, and 1% Triton X-100). The chymotrypsin-like activity of the proteasome was measured by incubating equal amounts of protein with the preferential chymotrypsin-like substrate Suc-LLVY-AMC in assay buffer (50 mM Tris-HCl, pH 7.5, 150 mM NaCl) for two hours. After incubation, was added and the rate of free AMC was measured over time with a florescent spectrophotometric plate reader (excitation=380 nm, emission=460 nm).

SMILES	LD50 whole cell, LP1 (LP-1 myeloma cells)	LD50 whole cell, AML2 [1]	LD50 whole cell, MDAY-D2 [2]	LD50 whole cell, A549 (A549 lung cancer cells)	K (stability) [3]	IC50 (myeloma cell lines)	IC50 [7]	IC50 (20S proteasome)	also measured
Nc1ccc(O)c2ncccc12 [5AHQ, 5-amino-8-hydroxyquinoline]	12.5 μm	3.9 μm	7.8 μm	31.25 μm	9.84	< 15 µM	< 15 µM		tumor weight and volume ([4]; 50 mg/kg in water, oral gavage, three weeks after injection of cells): reduced tumor weight and volume; tumor growth (volume) ([4]; K562 subcutaneous, 100 mg/kg for 5 of 7 days): delayed tumor growth; efficacy dose in mice xenografts ([4]; mouse, in vivo): 50 mg/kg/day; toxicity ([4]; mouse, in vivo): No significant toxicity; tumor growth (volume) [5]: delayed tumor growth; tumor growth (volume) [6]: delayed tumor growth; IC50 (solid tumor cell lines; read-out: IC50, induced cell death): < 15 µM
Oc1c(Br)cc(Cl)c2cccnc12 [BCQ, 7-bromo-5-chloro-8-hydroxyquinoline]	31.25 μm				10.24			15.6 µM	
Oc1ccc(Cl)c2cccnc12 [COQ, 5-chloro-8-hydroxyquinoline]	31.25 μm	3.9 μm	3.9 μm	62.5 μm	8.89			62.5 µM	
Oc1c(I)cc(Cl)c2cccnc12 [Clioquinol, 5-chloro-7-iodo-8-hydroxyquinoline, reference compound]	31.25 μm	3.9 μm	15.6 μm	250 μm	9.06	< 20 µM	< 20 µM	12.5 µM	IC50 [8]: < 20 µM; samples with induced cell death at IC50<20 μM [9]: 0/3; inhibition of cyclin D2 promoter (luciferase) (cyclin D2 promoter): c-maf independent inhibitors of the cyclin D2 promoter; p21 and p27 expression (p21 and p27): increased expression of p21 and p27; cell cycle effect [10]: arrested cells in the G1 phase; tumor progression [11]: delayed tumor progression; trough serum concentration [12]: 20 µM; proteasomal inhibition in compound-resistant cells (proteasome): no proteasomal inhibition was detected; cell lines with induced cell death at IC50<20 μM (solid tumor cell lines; solid tumor, forty-eight hours): 0/5
Oc1c(I)cc(I)c2cccnc12 [DiiodoQ, reference compound]		62.5 μm	31.25 μm	250 μm				> 1000 µM	
O=[N+]([O-])c1ccc(O)c2ncccc12 [HNQ, 8-hydroxy-5-nitroquinoline]	15.6 μm				9.13			15.6 µM	
